Test results as given in patent publication US7081464B2, “Topical compositions of cyclic amides as immunotherapeutic agents” (Celgene Corporation, priority 1995, dated 2006).

melting point | SMILES
159 to 162 °C | COc1ccc(C(CC(=O)O)N2C(=O)c3ccccc3C2=O)cc1OC1CCCC1 (centres unmarked) [Example 2, 3-Phthalimido-3-(3-cyclopentyloxy-4-methoxyphenyl)propionic Acid]
76 to 78 °C | COC(=O)CC(c1ccc(OC)c(OC2CCCC2)c1)N1C(=O)c2ccccc2C1=O (centres unmarked) [Example 5, Methyl 3-phthalimido-3-(3-cyclopentyloxy-4-methoxyphenyl)propionate]
